{"source": "ChEMBL document CHEMBL5233255", "about": "“Natural and nature-inspired stilbenoids as antiviral agents” (Eur J Med Chem, 2020)", "key": {"[1]": {"experiment": "Selectivity index, ratio of CC50 for cytotoxicity against human Huh-7 cells to EC50 for Dengue virus 2 New Guinea C infected in human Huh-7 cells", "format": "toxicity, cell-based", "settings": "read-out: Ratio CC50/EC50"}, "[2]": {"experiment": "Cytotoxicity against human Huh-7 cells assessed as reduction in cell viability incubated for 3 days by MTT assay", "format": "toxicity, cell-based", "settings": "time 3 day"}, "dengue virus type 2": {"tested_on": "dengue virus type 2", "experiment": "Antiviral activity against Dengue virus 2 New Guinea C infected in human Huh-7 cells assessed as reduction in virus induced cytopathic effect incubated for 3 days by trypan blue staining based assay", "format": "functional, organism-based", "settings": "Huh-7, 72 h"}, "[3]": {"experiment": "Cytotoxicity against HEK293T cells", "format": "toxicity, cell-based, HEK-293T", "settings": "human, read-out: TC50 (the source's name)"}, "[4]": {"experiment": "Selectivity index, ratio of TC50 for cytotoxicity against HEK293T cells to EC50 for antiviral activity against HIV-1 infected in HEK293T cells", "format": "toxicity, cell-based", "settings": "human"}, "[5]": {"tested_on": "Human immunodeficiency virus 1", "experiment": "Antiviral activity against HIV-1 infected in HEK293T cells", "format": "functional, organism-based", "settings": "Human immunodeficiency virus 1, HEK-293T"}, "Vero C1008": {"tested_on": "Vero C1008", "experiment": "Cytotoxicity against African green monkey Vero E6 cells infected with Middle East respiratory syndrome coronavirus assessed as reduction in cell viability at 250 uM by LDH assay relative to control", "format": "toxicity, cell-based", "settings": "chlorocebus sabaeus, vero c1008, 250 µM"}, "[6]": {"experiment": "Cytotoxicity against human C8166 cells assessed as inhibition of cell growth by MTT assay", "format": "toxicity, cell-based"}, "Influenza A virus [7]": {"tested_on": "Influenza A virus", "experiment": "Antiviral activity against influenza A virus A/PR/8/34 (H1N1) infected in human A549 cells assessed as inhibition of RANTES production incubated for 48 hrs by ELISA", "format": "functional, organism-based", "settings": "A549, 48 h"}, "Influenza A virus [8]": {"tested_on": "Influenza A virus", "experiment": "Antiviral activity against influenza A virus A/Guangdong/243/72 ([…]) infected in MDCK cells assessed as inhibition of virus-induced cytopathic effect", "format": "functional, organism-based"}, "[9]": {"experiment": "Cytotoxicity against human A549 cells assessed as reduction in cell viability by Alamar blue assay", "format": "toxicity, cell-based"}, "[10]": {"experiment": "Therapeutic index, ratio of CC50 for cytotoxicity against human C8166 cells to EC50 for antiviral activity against HIV-1 infected in C8166 cells", "format": "toxicity, cell-based", "settings": "read-out: Ratio CC50/EC50"}, "[11]": {"tested_on": "Human immunodeficiency virus 1", "experiment": "Antiviral activity against HIV-1 infected in human C8166 cells assessed as inhibition of viral replication", "format": "functional, organism-based", "settings": "Human immunodeficiency virus 1, C8166"}, "rhinovirus A1B": {"tested_on": "rhinovirus A1B", "experiment": "Antiviral activity against HRV1B infected in human HeLa cells assessed as reduction in cytopathic effect by SRB assay", "format": "functional, organism-based", "settings": "Rhinovirus A"}, "Human alphaherpesvirus 1 [12]": {"tested_on": "Human alphaherpesvirus 1", "experiment": "Antiviral activity against HSV-1 7401H infected in African green monkey Vero cells incubated for 2 days by plaque reduction assay", "format": "functional, organism-based", "settings": "Human alphaherpesvirus 1, 7401H"}, "Human alphaherpesvirus 2": {"tested_on": "Human alphaherpesvirus 2", "experiment": "Antiviral activity against HSV-2 Baylor 186 infected in African green monkey Vero cells incubated for 2 days by plaque reduction assay", "format": "functional, organism-based", "settings": "Human alphaherpesvirus 2, Baylor 186, Vero, 48 h"}, "Human alphaherpesvirus 1 [13]": {"tested_on": "Human alphaherpesvirus 1", "experiment": "Antiviral activity against HSV-1 KOS infected in African green monkey Vero cells incubated for 2 days by plaque reduction assay", "format": "functional, organism-based", "settings": "Human alphaherpesvirus 1, KOS, 48 h"}, "Enterovirus A71": {"tested_on": "Enterovirus A71", "experiment": "Antiviral activity against human EV71 infected in African green monkey Vero cells assessed as reduction in cytopathic effect by SRB assay", "format": "functional, organism-based", "settings": "Enterovirus A"}, "Coxsackievirus B3": {"tested_on": "Coxsackievirus B3", "experiment": "Antiviral activity against CVB3 infected in African green monkey Vero cells assessed as reduction in cytopathic effect by SRB assay", "format": "functional, organism-based", "settings": "Enterovirus B"}, "[14]": {"experiment": "Inhibition of influenza B virus B/Jiangsu/10/2003 neuraminidase"}, "Influenza A virus [15]": {"tested_on": "Influenza A virus", "experiment": "Antiviral activity against influenza A virus A/PR/8/34 (H1N1) infected in MDCK cells preincubated 2 hrs followed by viral infection and measured after 24 hrs by MTT assay", "format": "functional, organism-based"}, "[16]": {"experiment": "Selectivity index, ratio of CC50 for cytotoxicity against MDCK cells to IC50 for influenza A virus A/Guangdong/243/72 ([…]) infected in MDCK cells", "format": "toxicity, cell-based", "settings": "dog, read-out: Ratio CC50/IC50"}, "[17]": {"tested_on": "Human immunodeficiency virus 1", "experiment": "Antiviral activity against HIV-1 RF infected in human JM1 cells", "format": "functional, organism-based", "settings": "Human immunodeficiency virus 1, RF"}, "[18]": {"tested_on": "Human immunodeficiency virus 1", "experiment": "Antiviral activity against HIV-1 Bal (R5) infected in human TZM-bl cells assessed as inhibition of virus induced cytopathic effect by luciferase based assay", "format": "functional, organism-based", "settings": "Human immunodeficiency virus 1, Bal (R5)"}, "[19]": {"experiment": "Selectivity index, ratio of CC50 for cytotoxicity against human MT4 cells to EC50 for antiviral activity against HIV-1 NL 4-3 (X4) infected in human MT4 cells", "format": "toxicity, cell-based", "settings": "read-out: Ratio CC50/EC50"}, "[20]": {"experiment": "Selectivity index, ratio of CC50 for cytotoxicity against human TZM-bl cells to EC50 for antiviral activity against HIV-1 Bal (R5) infected in human TZM-bl cells", "format": "toxicity, cell-based", "settings": "read-out: Ratio CC50/EC50"}, "[21]": {"tested_on": "Human immunodeficiency virus 1", "experiment": "Antiviral activity against HIV-1 NL 4-3 (X4) infected in human MT4 cells assessed as inhibition of virus induced cytopathic effect by MTT assay", "format": "functional, organism-based", "settings": "Human immunodeficiency virus 1, NL 4-3 (X4)"}, "[22]": {"experiment": "Selectivity index, ratio of CC50 for cytotoxicity against human TZM-bl cells to EC50 for antiviral activity against HIV-1 NL 4-3 (X4) infected in human TZM-bl cells", "format": "toxicity, cell-based", "settings": "read-out: Ratio CC50/EC50"}, "[23]": {"experiment": "Cytotoxicity against human MT4 cells by MTT assay", "format": "toxicity, cell-based"}, "[24]": {"tested_on": "Human immunodeficiency virus 1", "experiment": "Antiviral activity against HIV-1 NL 4-3 (X4) infected in human TZM-bl cells assessed as inhibition of virus induced cytopathic effect by luciferase based assay", "format": "functional, organism-based", "settings": "Human immunodeficiency virus 1, NL 4-3 (X4)"}, "[25]": {"experiment": "Cytotoxicity against human TZM-bl cells by luciferase assay", "format": "toxicity, cell-based"}, "[26]": {"target": "Neuraminidase (Influenza A virus (A/Puerto Rico/8/1934(H1N1)), UniProt P03468)", "sequence (P03468 whole entry)": "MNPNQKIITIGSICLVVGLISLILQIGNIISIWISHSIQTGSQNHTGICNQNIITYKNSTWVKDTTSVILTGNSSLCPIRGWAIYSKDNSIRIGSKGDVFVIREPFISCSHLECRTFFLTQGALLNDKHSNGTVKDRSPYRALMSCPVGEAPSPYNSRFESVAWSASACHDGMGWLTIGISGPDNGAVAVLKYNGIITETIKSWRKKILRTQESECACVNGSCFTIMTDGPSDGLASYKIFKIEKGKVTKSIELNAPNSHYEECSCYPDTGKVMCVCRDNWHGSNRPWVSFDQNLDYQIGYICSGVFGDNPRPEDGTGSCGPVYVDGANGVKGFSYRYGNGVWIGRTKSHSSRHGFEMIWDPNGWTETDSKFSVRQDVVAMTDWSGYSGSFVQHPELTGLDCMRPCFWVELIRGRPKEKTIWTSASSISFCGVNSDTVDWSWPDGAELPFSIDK", "experiment": "Inhibition of influenza A virus A/PR/8/34 (H1N1) neuraminidase"}}, "data": [{"smiles": "COc1cc(/C(C)=C/c2cc3ccccc3[nH]2)cc(OC)c1OC", "values": [{"measurement": "selectivity ratio", "setting": "[1]", "result": 209}, {"measurement": "CC50 at 72 h", "setting": "[2]", "result": 1700, "unit": "nM"}, {"measurement": "EC50", "setting": "dengue virus type 2", "result": 8.12, "unit": "nM"}]}, {"smiles": "Oc1cc(O)cc(/C=C/c2ccc(O)c(O)c2)c1", "note": "[PICEATANNOL]", "values": [{"measurement": "CC50", "setting": "[3]", "result": "> 400", "unit": "µM"}, {"measurement": "selectivity ratio", "setting": "[4]", "result": "> 18.7"}, {"measurement": "EC50", "setting": "[5]", "result": 21.4, "unit": "µM"}]}, {"smiles": "Oc1ccc(/C=C/c2cc(O)cc(O)c2)cc1", "note": "[RESVERATROL]", "values": [{"measurement": "CC50", "setting": "[3]", "result": "> 300", "unit": "µM"}, {"measurement": "Activity", "setting": "Vero C1008", "result": 25, "unit": "%"}, {"measurement": "CC50", "setting": "[6]", "result": 35.6, "unit": "µg/mL"}, {"measurement": "EC50", "setting": "Influenza A virus [7]", "result": 28.4, "unit": "µM"}, {"measurement": "IC50", "setting": "Influenza A virus [8]", "result": "> 22.2", "unit": "µg/mL"}, {"measurement": "CC50", "setting": "[9]", "result": 52.6, "unit": "µM"}, {"measurement": "selectivity ratio", "setting": "[10]", "result": 8.14}, {"measurement": "EC50", "setting": "[11]", "result": 4.37, "unit": "µg/mL"}, {"measurement": "EC50", "setting": "[5]", "result": "> 75", "unit": "µM"}, {"measurement": "IC50", "setting": "rhinovirus A1B", "result": 29.7, "unit": "µM"}]}, {"smiles": "Oc1cc(O)cc(/C=C/c2ccc(O)cc2O)c1", "note": "[OXYRESVERATROL]", "values": [{"measurement": "IC50", "setting": "Human alphaherpesvirus 1 [12]", "result": 19.8, "unit": "µg/mL"}, {"measurement": "IC50", "setting": "Human alphaherpesvirus 2", "result": 18.7, "unit": "µg/mL"}, {"measurement": "IC50", "setting": "Human alphaherpesvirus 1 [13]", "result": 24, "unit": "µg/mL"}]}, {"smiles": "Oc1ccc(/C=C\\c2cc(O)cc(O)c2)cc1", "note": "[CIS-RESVERATROL]", "values": [{"measurement": "IC50", "setting": "Enterovirus A71", "result": 37.6, "unit": "µM"}, {"measurement": "IC50", "setting": "Coxsackievirus B3", "result": 12.2, "unit": "µM"}]}, {"smiles": "Oc1ccc(/C=C/c2cc(O)c3c(c2)O[C@H](c2ccc(O)cc2O)[C@H]3c2cc(O)cc(O)c2)cc1", "values": [{"measurement": "IC50", "setting": "[14]", "result": 26.3, "unit": "µg/mL"}, {"measurement": "IC50", "setting": "Influenza A virus [8]", "result": 0.67, "unit": "µg/mL"}, {"measurement": "IC50", "setting": "Influenza A virus [15]", "result": 0.67, "unit": "µg/mL"}, {"measurement": "selectivity ratio", "setting": "[16]", "result": 57.4}]}, {"smiles": "O=S(=O)(O)c1cc(N=C=S)ccc1/C=C/c1ccc(N=C=S)cc1S(=O)(=O)O", "values": [{"measurement": "IC50", "setting": "[17]", "result": 20, "unit": "µM"}]}, {"smiles": "Oc1cc(/C=C/c2cc(O)c(O)c(O)c2)cc(O)c1O", "values": [{"measurement": "EC50", "setting": "[18]", "result": 1690, "unit": "nM"}, {"measurement": "selectivity ratio", "setting": "[19]", "result": 16}, {"measurement": "selectivity ratio", "setting": "[20]", "result": 12}, {"measurement": "EC50", "setting": "[21]", "result": 740, "unit": "nM"}, {"measurement": "selectivity ratio", "setting": "[22]", "result": 69}, {"measurement": "CC50", "setting": "[23]", "result": 11.9, "unit": "µM"}, {"measurement": "EC50", "setting": "[24]", "result": 290, "unit": "nM"}, {"measurement": "CC50", "setting": "[25]", "result": 20.1, "unit": "µM"}]}, {"smiles": "COc1cc(/C=C/c2cc(O)cc(O)c2Cc2ccc(O)c(O)c2)ccc1O", "values": [{"measurement": "IC50", "setting": "Influenza A virus [8]", "result": 6.17, "unit": "µg/mL"}, {"measurement": "IC50", "setting": "[26]", "result": 13.1, "unit": "µM"}, {"measurement": "selectivity ratio", "setting": "[16]", "result": 32.4}]}]}
